Measured values reported in patent publication US20250339419A1, “METHODS OF TREATING OCULAR INFLAMMATORY DISEASES” (priority 2021, published 2025).
“And” between values parts separate entries of the source, which are not always exact repeats. Equal entries are not always repeated. “Also recorded” adds a separate entry of the source. Where two headings read alike, the source gives them in different places.

Columns and labels:
[1] = Phase 1 double-masked multiple-dose plasma PK study of roflumilast topical ophthalmic suspension (0.3%); type: in vivo, human; details: for plasma profile, fluctuation between peak (Cmax) and trough (pre-dose): Day 8; for accumulation ratios (RAUC0-12): by Day 8, mean (SD)
Protocol: A pharmacokinetic (PK) study of a roflumilast topical ophthalmic suspension was conducted. Data at Day 1 (Example 15), Day 8 (Example 16), and comparative data (Example 17) is provided.
The study was a Phase 1, double-masked, multiple-dose study conducted in healthy volunteers. The multiple-dose study was conducted over a single dose level where participants were randomly assigned to receive a masked dose of roflumilast topical ophthalmic suspension eye drops (n=14) or vehicle only (n=2) as set forth in Table 7, administered as a single drop in each eye BID (twice daily, every 12 hours) for seven days, followed by a single morning dose on Day 8.
Blood samples were collected at multiple time points on Days 1, 2, 8, and 9. The following nominal blood sampling time points were used for the PK assessment of roflumilast topical ophthalmic suspension and its main active metabolite on days 1 and 8:
Roflumilast topical ophthalmic suspension and roflumilast n-oxide (metabolite) concentrations in plasma were evaluated using Phoenix™ WinNonlin® version and 8.4 (Pharsight Corporation, USA). For both analytes, the upper limit of quantification (ULOQ) was […] and the lower limit of quantification (LLOQ) was […].
Analysis Procedures: Actual collection times were used for PK parameter determinations, calculated with respect to the dose time. Time points preceding Cmax, the first measurable concentration that was BLOQ were set to zero for PK parameter determination. Where the final plasma concentration was BLOQ, the concentration at the preceding time point was deemed to be the last measurable concentration for calculation of λz. AUC parameters were determined by the linear-up, log-down trapezoidal rule. λz was determined by log-linear regression obtained on at least the 3 last quantifiable concentrations (not including Cmax); the default “best fit” method by Phoenix WinNonlin was used for the selection of slopes to determine λz. In addition, every PK profile was scrutinized visually and adjustments made to the slope selection, where necessary. The goodness of fit of the regression was evaluated using the square of the correlation coefficient (adjusted R2) which was required to be at least 0.8 for the λz l value to be considered reliable. Regression-based parameters (AUC0-inf, t1/2) were calculated if the adjusted R2 value of the regression line was greater than or equal to 0.8 and residual area <20%. The time point where the ln-linear λz calculation begins (Lower) and the actual sampling time of the last measurable concentration used to estimate the λz (λz Upper) as well as the R2-adjusted for the ln-linear regression for the calculation of the elimination rate constant were listed.

[2] = parameters: AUC 0-∞: unit not given beside the values; details: Observed PO (Day 1), single 500 μg dose; cited from earlier work
[3] = plasma, Day 8, mean (SD), topical ocular 0.3% BID 7 days + morning dose

O=C(Nc1c(Cl)c[n+]([O-])cc1Cl)c1ccc(OC(F)F)c(OCC2CC2)c1 [Roflumilast N-oxide, 3-cyclopropylmethoxy-4-difluoromethoxy-N-(3,5-dichloropyrid-4-yl 1-oxide)benzamide]
mean plasma profile ([1]; Day 1, FIGS. 14-17): increased over the 12 hours post-first dose
plasma levels relative to roflumilast ([1]; Day 1, FIGS. 16-17): consistently higher than roflumilast after 2 hours
plasma profile, fluctuation between peak (Cmax) and trough (pre-dose) [1]: very stable, showing little fluctuation
mean peak plasma profile relative to parent ([1]; Day 8, FIGS. 22-23): consistently higher than that of the parent
PTF % (percent peak-to-trough fluctuation) ([1]; Day 8, mean (SD)): 0.287 (0.223) %
RAUC0-12 (accumulation ratio) ([1]; Day 8, mean (SD)): 9.25 (2.92)
accumulation ratios (RAUC0-12) [1]: 9.25
C12 ([1]; plasma, Day 1, mean, 12 hr post-first dose): 1.37 ng/mL
AUC0-t ([1]; plasma, Day 1, mean, to 12 hr post-first dose): 9.38 ng·h/mL
Clast ([1]; plasma, Day 1, mean, to 24 hr post-first dose): 3.49 ng/mL
Cmax ([1]; plasma, Day 1, mean, 0.3% suspension 1 drop each eye BID): 1.38 ng/mL
Tmax ([1]; plasma, Day 1, median): 11.83 h
AUC0-t ([1]; plasma, Day 8, mean (SD)): 156 (79.3) h*ng/mL
AUC0-tau ([1]; plasma, Day 8, mean (SD)): 78.4 (39.4) h*ng/mL
AUC24 ([1]; plasma, Day 8, mean (SD)): 149 (77.4)** h*ng/mL
C12 trough ([1]; plasma, Day 8, mean (SD)): 6.33 (3.35) ng/mL
Cavg ([1]; plasma, Day 8, mean (SD)): 6.53 (3.29) ng/mL
Cmax [1, 3]: 7.93 (3.88) ng/mL
Tmax ([1]; plasma, Day 8, median): 1.00 h

O=C(Nc1c(Cl)cncc1Cl)c1ccc(OC(F)F)c(OCC2CC2)c1 [Roflumilast, N-(3,5-dichloropyrid-4-yl)-3-cyclopropylmethoxy-4-difluoromethoxybenzamide]
accumulation from the AM to the PM dose (C12 vs Clast) ([1]; Day 1): ~2 fold
plasma profile, fluctuation between peak (Cmax) and trough (pre-dose) [1]: very stable, showing little fluctuation
PTF % (percent peak-to-trough fluctuation) ([1]; Day 8, mean (SD)): 0.893 (0.446) %
RAUC0-12 (accumulation ratio) ([1]; Day 8, mean (SD)): 2.63 (1.39)
plasma concentrations, topical ocular route compared to oral (PO) administration ([1]; FIGS. 24-26): lower than those of PO-administered roflumilast; also recorded: significantly lower, producing a flatter concentration-time profile without a distinct Cmax peak
AUC0-tau Geometric Mean Ratio (Day 8/Day 1) (90% CI) ([1]; Group 1): 2.37 (1.90-2.94)
C12 (trough) Difference in LS Means (Day 8 − Day 1) (90% CI) ([1]; Group 1): 0.66 (0.45-0.86)
C12 (trough) Geometric Mean Ratio (Day 8/Day 1) (90% CI) ([1]; Group 1): 1.93 (1.57-2.37)
Cmax Geometric Mean Ratio (Day 8/Day 1) (90% CI) ([1]; Group 1): 1.79 (1.41-2.27)
C12 (trough) LS Means ([1]; Group 1, Day 1, n 14): −1.44
C12 (trough) LS Means ([1]; Group 1, Day 8, n 14): −0.78
accumulation ratios (RAUC0-12) [1]: 2.63
AUC ([1]; human, plasma, other: topical ophthalmic eye drops, 0.3 % suspension, single drop in each eye BID, Group 1, Day 1, read-out: AUC0-tau Geometric Mean): 2.91 ng·h/mL
concentration at 12 h ([1]; human, plasma, other: topical ophthalmic eye drops, 0.3 % suspension, single drop in each eye BID, Group 1, Day 1, read-out: C12 (trough) Geometric Mean): 0.24 ng/mL
Cmax ([1]; human, plasma, other: topical ophthalmic eye drops, 0.3 % suspension, single drop in each eye BID, Group 1, Day 1, read-out: Cmax Geometric Mean): 0.47 ng/mL
AUC ([1]; human, plasma, other: topical ophthalmic eye drops, 0.3 % suspension, single drop in each eye BID, Group 1, Day 8, read-out: AUC0-tau Geometric Mean): 6.88 ng·h/mL
concentration at 12 h ([1]; human, plasma, other: topical ophthalmic eye drops, 0.3 % suspension, single drop in each eye BID, Group 1, Day 8, read-out: C12 (trough) Geometric Mean): 0.46 ng/mL
Cmax ([1]; human, plasma, other: topical ophthalmic eye drops, 0.3 % suspension, single drop in each eye BID, Group 1, Day 8, read-out: Cmax Geometric Mean): 0.85 ng/mL
concentration at 12 h ([1]; human, plasma, other: topical ophthalmic eye drops, 0.3 % suspension, single drop in each eye BID, plasma, Day 1, mean, 12 hr post-first dose, read-out: C12): 0.29 ng/mL
AUC0-t ([1]; human, plasma, other: topical ophthalmic eye drops, 0.3 % suspension, single drop in each eye BID, plasma, Day 1, mean, to 12 hr post-first dose, read-out: AUC0-t): 3.6 ng·h/mL
concentration at 24 h ([1]; human, plasma, other: topical ophthalmic eye drops, 0.3 % suspension, single drop in each eye BID, plasma, Day 1, mean, to 24 hr post-first dose, read-out: Clast): 0.51 ng/mL
Cmax ([1]; human, plasma, other: topical ophthalmic eye drops, 0.3 % suspension, single drop in each eye BID, plasma, Day 1, mean, 0.3% suspension 1 drop each eye BID, read-out: Cmax): 0.59 ng/mL
Tmax ([1]; human, plasma, other: topical ophthalmic eye drops, 0.3 % suspension, single drop in each eye BID, plasma, Day 1, median, read-out: Tmax): 2 h
AUC0-t ([1]; human, plasma, other: topical ophthalmic eye drops, 0.3 % suspension, single drop in each eye BID, plasma, Day 8, mean (SD), read-out: AUC0-t): 12.8 ng·h/mL
AUC ([1]; human, plasma, other: topical ophthalmic eye drops, 0.3 % suspension, single drop in each eye BID, plasma, Day 8, mean (SD), read-out: AUC0-tau): 7.6 ng·h/mL
AUC ([1]; human, plasma, other: topical ophthalmic eye drops, 0.3 % suspension, single drop in each eye BID, plasma, Day 8, mean (SD), read-out: AUC24): 12.8 ng·h/mL
concentration at 12 h ([1]; human, plasma, other: topical ophthalmic eye drops, 0.3 % suspension, single drop in each eye BID, plasma, Day 8, mean (SD), read-out: C12 trough): 0.5 ng/mL
Tmax ([1]; human, plasma, other: topical ophthalmic eye drops, 0.3 % suspension, single drop in each eye BID, plasma, Day 8, median, read-out: Tmax): 1 h
Cmax ([1]; human, plasma, topical or ocular, 0.3 % suspension, single drop in each eye BID, plasma, Day 8, mean (SD), topical ocular 0.3% BID 7 days + morning dose, read-out: Cmax): 0.94 ng/mL
Cavg ([1]; plasma, Day 8, mean (SD)): 0.63 (0.30) ng/mL
Cmax [1, 3]: 0.94 (0.46) ng/mL
AUC 0-∞ [2]: 37.2 and 32.86
Plasma Cmax [2]: 8.3 ng/mL
